From PubChem BioAssay AID1919000 (Molecular Pharmacology Branch, DTP, NCI, 2023)
Values joined by “and” are separate entries in the source; they are usually repeats but may differ in a detail not shown here. Equal entries are not always repeated. Values belong to the molecule of their own block, whether it stands above or below them.

Test system: 653999-131-R-J2-PDC complex spheroids, growth % test/control
Assay: Anticancer human tumor 653999-131-R-J2-PDC patient-derived lung adenocarcinoma cell line growth inhibition [AhR]
Conditions: for viability, T/C: stronger effect = lower value
Procedure, shortened: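 Complex tumor spheroids co-cultured with HUVEC and human MSC stroma; AhR antagonists tested in combination with standard-of-care and investigational agents. Top concentration at or near clinical Cmax (else 10 microM), half-log dilutions; growth expressed as percent test/control.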

[1] = curve of first compound, second compound 0.1 µM
[2] = curve of first compound, second compound 0.316 µM
[3] = curve of first compound, second compound 1 µM
[4] = curve of first compound, second compound 3.16 µM
[5] = curve of first compound, second compound 10 µM
[6] = second compound 0.1 µM, first compound 0.0316 µM
[7] = second compound 0.1 µM, first compound 0.1 µM
[8] = second compound 0.1 µM, first compound 0.316 µM
[9] = second compound 0.1 µM, first compound 1 µM
[10] = second compound 0.1 µM, first compound 3.16 µM
[11] = second compound 0.1 µM, first compound 10 µM
[12] = second compound 0.316 µM, first compound 0.0316 µM
[13] = second compound 0.316 µM, first compound 0.1 µM
[14] = second compound 0.316 µM, first compound 0.316 µM
[15] = second compound 0.316 µM, first compound 1 µM
[16] = second compound 0.316 µM, first compound 3.16 µM
[17] = second compound 0.316 µM, first compound 10 µM
[18] = second compound 1 µM, first compound 0.0316 µM
[19] = second compound 1 µM, first compound 0.1 µM
[20] = second compound 1 µM, first compound 0.316 µM
[21] = second compound 1 µM, first compound 1 µM
[22] = second compound 1 µM, first compound 3.16 µM
[23] = second compound 1 µM, first compound 10 µM
[24] = second compound 3.16 µM, first compound 0.0316 µM
[25] = second compound 3.16 µM, first compound 0.1 µM
[26] = second compound 3.16 µM, first compound 0.316 µM
[27] = second compound 3.16 µM, first compound 1 µM
[28] = second compound 3.16 µM, first compound 3.16 µM
[29] = second compound 3.16 µM, first compound 10 µM
[30] = second compound 10 µM, first compound 0.0316 µM
[31] = second compound 10 µM, first compound 0.1 µM
[32] = second compound 10 µM, first compound 0.316 µM
[33] = second compound 10 µM, first compound 1 µM
[34] = second compound 10 µM, first compound 3.16 µM
[35] = second compound 10 µM, first compound 10 µM
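Also: spheroids exposed to agents for seven days.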
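For viability, T/C in this document: 100% = DMSO vehicle control viability.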

IC50 [1]: > 10000 nM
IC50 [2]: > 10000 nM
IC50 [3]: > 10000 nM
IC50 [4]: > 10000 nM
IC50 [5]: > 10000 nM
SMILES: CC(C)c1c(-c2ccccc2)nc2c(C#N)c[nH]n2c1=O + Cc1ccccc1N=Nc1ccc(NC(=O)c2ccnn2C)c(C)c1
viability, T/C [6]: 97.4%
viability, T/C [7]: 101%
viability, T/C [8]: 107%
viability, T/C [9]: 95.6%
viability, T/C [10]: 98.5%
viability, T/C [11]: 99.1%
viability, T/C [12]: 96.5%
viability, T/C [13]: 105%
viability, T/C [14]: 103%
viability, T/C [15]: 98.9%
viability, T/C [16]: 98.2%
viability, T/C [17]: 111%
viability, T/C [18]: 106%
viability, T/C [19]: 126%
viability, T/C [20]: 108%
viability, T/C [21]: 105%
viability, T/C [22]: 109%
viability, T/C [23]: 104%
viability, T/C [24]: 99.4%
viability, T/C [25]: 115%
viability, T/C [26]: 107%
viability, T/C [27]: 92.8%
viability, T/C [28]: 90.3%
viability, T/C [29]: 105%
viability, T/C [30]: 97.5%
viability, T/C [31]: 105%
viability, T/C [32]: 111%
viability, T/C [33]: 92.7%
viability, T/C [34]: 107%
viability, T/C [35]: 108%

IC50 [1]: 2930 nM
IC50 [2]: 2890 nM
IC50 [3]: 3060 nM
IC50 [4]: 2710 nM
IC50 [5]: 388 nM
SMILES: Nc1ccccc1NC(=O)c1ccc(CNC(=O)OCc2cccnc2)cc1 + Cc1cncc(-c2nc(NCCc3c[nH]c4ccccc34)c3ncn(C(C)C)c3n2)c1
viability, T/C [6]: 85.2%
viability, T/C [7]: 86.2%
viability, T/C [8]: 88.8%
viability, T/C [9]: 61.4%
viability, T/C [10]: 52%
viability, T/C [11]: 15.9%
viability, T/C [12]: 91.1%
viability, T/C [13]: 85.9%
viability, T/C [14]: 84.3%
viability, T/C [15]: 57.2%
viability, T/C [16]: 56.6%
viability, T/C [17]: 13.2%
viability, T/C [18]: 88.3%
viability, T/C [19]: 86.7%
viability, T/C [20]: 69.3%
viability, T/C [21]: 65.7%
viability, T/C [22]: 55.6%
viability, T/C [23]: 13.3%
viability, T/C [24]: 93%
viability, T/C [25]: 113%
viability, T/C [26]: 88.4%
viability, T/C [27]: 57.7%
viability, T/C [28]: 55.4%
viability, T/C [29]: 8.91%
viability, T/C [30]: 66.7%
viability, T/C [31]: 46.9%
viability, T/C [32]: 45.3%
viability, T/C [33]: 44.3%
viability, T/C [34]: 36.6%
viability, T/C [35]: 4.53%

IC50 [1]: 4.27 nM
IC50 [2]: 3.22 nM
IC50 [3]: 4.17 nM
IC50 [4]: 5.21 nM
IC50 [5]: < 0.949 nM
SMILES: CCc1c2c(nc3ccc(O)cc13)-c1cc3c(c(=O)n1C2)COC(=O)[C@]3(O)CC + Cc1cncc(-c2nc(NCCc3c[nH]c4ccccc34)c3ncn(C(C)C)c3n2)c1
viability, T/C (second compound 0.1 µM, first compound 0.000949 µM): 62.3%
viability, T/C (second compound 0.1 µM, first compound 0.003 µM): 56.1%
viability, T/C (second compound 0.1 µM, first compound 0.00949 µM): 38.4%
viability, T/C (second compound 0.1 µM, first compound 0.03 µM): 27.4%
viability, T/C (second compound 0.1 µM, first compound 0.0949 µM): 19.4%
viability, T/C (second compound 0.1 µM, first compound 0.3 µM): 13.7%
viability, T/C (second compound 0.316 µM, first compound 0.000949 µM): 59.1%
viability, T/C (second compound 0.316 µM, first compound 0.003 µM): 50.6%
viability, T/C (second compound 0.316 µM, first compound 0.00949 µM): 39.1%
viability, T/C (second compound 0.316 µM, first compound 0.03 µM): 26.2%
viability, T/C (second compound 0.316 µM, first compound 0.0949 µM): 18.3%
viability, T/C (second compound 0.316 µM, first compound 0.3 µM): 13%
viability, T/C (second compound 1 µM, first compound 0.000949 µM): 67.2%
viability, T/C (second compound 1 µM, first compound 0.003 µM): 55%
viability, T/C (second compound 1 µM, first compound 0.00949 µM): 38.5%
viability, T/C (second compound 1 µM, first compound 0.03 µM): 28.1%
viability, T/C (second compound 1 µM, first compound 0.0949 µM): 19.4%
viability, T/C (second compound 1 µM, first compound 0.3 µM): 13.6%
viability, T/C (second compound 3.16 µM, first compound 0.000949 µM): 58%
viability, T/C (second compound 3.16 µM, first compound 0.003 µM): 58.1%
viability, T/C (second compound 3.16 µM, first compound 0.00949 µM): 42.6%
viability, T/C (second compound 3.16 µM, first compound 0.03 µM): 28%
viability, T/C (second compound 3.16 µM, first compound 0.0949 µM): 18.8%
viability, T/C (second compound 3.16 µM, first compound 0.3 µM): 12.3%
viability, T/C (second compound 10 µM, first compound 0.000949 µM): 36.4%
viability, T/C (second compound 10 µM, first compound 0.003 µM): 32.3%
viability, T/C (second compound 10 µM, first compound 0.00949 µM): 25.5%
viability, T/C (second compound 10 µM, first compound 0.03 µM): 16%
viability, T/C (second compound 10 µM, first compound 0.0949 µM): 11.2%
viability, T/C (second compound 10 µM, first compound 0.3 µM): 8.25%

IC50 (curve of compound): > 10000 nM
SMILES: CC(C)c1c(-c2ccccc2)nc2c(C#N)c[nH]n2c1=O
viability, T/C (compound 0.0316 µM): 109% and 93.9% and 110%
viability, T/C (compound 0.1 µM): 112% (2×) and 109%
viability, T/C (compound 0.316 µM): 96.8% and 108% and 104%
viability, T/C (compound 1 µM): 90.2% and 116% and 109%
viability, T/C (compound 3.16 µM): 103% and 101% (2×)
viability, T/C (compound 10 µM): 96.2% (2×) and 103%

IC50 [1]: > 10000 nM
IC50 [2]: > 10000 nM
IC50 [3]: > 10000 nM
IC50 [4]: > 10000 nM
IC50 [5]: > 10000 nM
SMILES: CC1(C)CCC(CN2CCN(c3ccc(C(=O)NS(=O)(=O)c4ccc(NCC5CCOCC5)c([N+](=O)[O-])c4)c(Oc4cnc5[nH]ccc5c4)c3)CC2)=C(c2ccc(Cl)cc2)C1 + CC(CO)NC(=O)c1cc(-c2ccc(Cl)cc2)nn(-c2cnn(C)c2)c1=O
viability, T/C [6]: 105%
viability, T/C [7]: 101%
viability, T/C [8]: 99.6%
viability, T/C [9]: 94.1%
viability, T/C [10]: 108%
viability, T/C [11]: 71.2%
viability, T/C [12]: 98%
viability, T/C [13]: 101%
viability, T/C [14]: 103%
viability, T/C [15]: 89.8%
viability, T/C [16]: 94%
viability, T/C [17]: 71%
viability, T/C [18]: 90.8%
viability, T/C [19]: 104%
viability, T/C [20]: 107%
viability, T/C [21]: 98.4%
viability, T/C [22]: 103%
viability, T/C [23]: 80.3%
viability, T/C [24]: 96.2%
viability, T/C [25]: 101%
viability, T/C [26]: 106%
viability, T/C [27]: 108%
viability, T/C [28]: 95.3%
viability, T/C [29]: 75.1%
viability, T/C [30]: 99%
viability, T/C [31]: 107%
viability, T/C [32]: 111%
viability, T/C [33]: 105%
viability, T/C [34]: 92.5%
viability, T/C [35]: 74.5%

IC50 (curve of compound): 141 nM and 142 nM and 194 nM
SMILES: CC1COCCN1c1cc(-c2ccnn2C)c2ccnc(-c3ccn[nH]3)c2n1 (stereo unspecified)
viability, T/C (compound 0.00316 µM): 97.3% and 102% and 106%
viability, T/C (compound 0.01 µM): 92.7% and 98.5% and 104%
viability, T/C (compound 0.0316 µM): 77.3% and 77.9% and 90.3%
viability, T/C (compound 0.1 µM): 58.7% and 58.6% and 62.5%
viability, T/C (compound 0.316 µM): 32.9% and 34% and 41.3%
viability, T/C (compound 1 µM): 24% and 30.5% and 29.1%

IC50 [1]: > 10000 nM
IC50 [2]: > 10000 nM
IC50 [3]: > 10000 nM
IC50 [4]: > 10000 nM
IC50 [5]: > 10000 nM
SMILES: COc1cc(Nc2ncc3c(n2)-c2ccc(Cl)cc2C(c2c(F)cccc2OC)=NC3)ccc1C(=O)O + Cc1ccccc1N=Nc1ccc(NC(=O)c2ccnn2C)c(C)c1
viability, T/C [6]: 87.8%
viability, T/C [7]: 74.9%
viability, T/C [8]: 71.1%
viability, T/C [9]: 58.2%
viability, T/C [10]: 57.1%
viability, T/C [11]: 64.3%
viability, T/C [12]: 93.4%
viability, T/C [13]: 70.9%
viability, T/C [14]: 71.9%
viability, T/C [15]: 67.3%
viability, T/C [16]: 57.9%
viability, T/C [17]: 60.1%
viability, T/C [18]: 81%
viability, T/C [19]: 74%
viability, T/C [20]: 66.8%
viability, T/C [21]: 62.2%
viability, T/C [22]: 60.6%
viability, T/C [23]: 53.8%
viability, T/C [24]: 83%
viability, T/C [25]: 62.8%
viability, T/C [26]: 70.5%
viability, T/C [27]: 61.2%
viability, T/C [28]: 62.9%
viability, T/C [29]: 54.6%
viability, T/C [30]: 80.2%
viability, T/C [31]: 66.9%
viability, T/C [32]: 63.2%
viability, T/C [33]: 71%
viability, T/C [34]: 56.5%
viability, T/C [35]: 54.4%

IC50 (curve of compound): > 1000 nM
SMILES: Nc1ncn(C2CC(O)C(CO)O2)c(=O)n1 (stereo unspecified)
viability, T/C (compound 0.00316 µM): 105% and 95.5% and 110%
viability, T/C (compound 0.01 µM): 106% and 102% and 111%
viability, T/C (compound 0.0316 µM): 96.8% and 96.9% and 93.9%
viability, T/C (compound 0.1 µM): 89.9% and 86.5% and 91.9%
viability, T/C (compound 0.316 µM): 86.2% and 91.9% and 90.9%
viability, T/C (compound 1 µM): 77.5% and 78.8% and 85.9%
